{"source": "paper PMC8172861", "about": "“Structural and phylogenetic analyses of resistance to next-generation aminoglycosides conferred by AAC(2′) enzymes” (Scientific Reports, 2021)", "molecular_target": "T1, AAC(2′)-Ia (Providencia stuartii, UniProt Q52424)", "T1 construct": "AAC(2′)-Ia, N-terminal HIS-tag removed by thrombin", "T1 sequence (Q52424 whole entry)": "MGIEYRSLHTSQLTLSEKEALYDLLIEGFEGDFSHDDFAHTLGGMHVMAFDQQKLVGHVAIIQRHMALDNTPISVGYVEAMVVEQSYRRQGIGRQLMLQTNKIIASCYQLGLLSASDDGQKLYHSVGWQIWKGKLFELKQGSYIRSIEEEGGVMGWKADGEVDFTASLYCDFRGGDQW", "assay": "crystal structure ([…] Å) and competitive inhibition assay", "assay_type": "biochemical", "data": [{"smiles": "NCC[C@H](O)C(=O)N[C@@H]1C[C@H](N)[C@@H](O[C@H]2O[C@H](CN)[C@@H](O)[C@H](O)[C@H]2O)[C@H](O)[C@H]1O[C@H]1O[C@H](CO)[C@@H](O)[C@H](N)[C@H]1O", "note": "[amikacin]", "values": [{"measurement": "Ki", "result": "87 ± 10", "unit": "µM"}]}]}
